From US12441768B2, “Compositions and methods for treating endometriosis” (EndoMet Biosciences, Inc., priority 2018, dated 2025)
“Also recorded” adds a separate entry of the source. Where a SMILES comes first, the peptide text is derived from it.

What was measured:
[1] = biological target: T1, β-catenin and E-Cadherin interaction (Homo sapiens, UniProt P35222); experiment: Competitive binding assay β-catenin / E-Cadherin-FC fusion; settings: immobilized biotinylated β-catenin, 50 nM E-Cadherin-FC fusion, varying amounts of peptide
T1 sequence (P35222 1-781): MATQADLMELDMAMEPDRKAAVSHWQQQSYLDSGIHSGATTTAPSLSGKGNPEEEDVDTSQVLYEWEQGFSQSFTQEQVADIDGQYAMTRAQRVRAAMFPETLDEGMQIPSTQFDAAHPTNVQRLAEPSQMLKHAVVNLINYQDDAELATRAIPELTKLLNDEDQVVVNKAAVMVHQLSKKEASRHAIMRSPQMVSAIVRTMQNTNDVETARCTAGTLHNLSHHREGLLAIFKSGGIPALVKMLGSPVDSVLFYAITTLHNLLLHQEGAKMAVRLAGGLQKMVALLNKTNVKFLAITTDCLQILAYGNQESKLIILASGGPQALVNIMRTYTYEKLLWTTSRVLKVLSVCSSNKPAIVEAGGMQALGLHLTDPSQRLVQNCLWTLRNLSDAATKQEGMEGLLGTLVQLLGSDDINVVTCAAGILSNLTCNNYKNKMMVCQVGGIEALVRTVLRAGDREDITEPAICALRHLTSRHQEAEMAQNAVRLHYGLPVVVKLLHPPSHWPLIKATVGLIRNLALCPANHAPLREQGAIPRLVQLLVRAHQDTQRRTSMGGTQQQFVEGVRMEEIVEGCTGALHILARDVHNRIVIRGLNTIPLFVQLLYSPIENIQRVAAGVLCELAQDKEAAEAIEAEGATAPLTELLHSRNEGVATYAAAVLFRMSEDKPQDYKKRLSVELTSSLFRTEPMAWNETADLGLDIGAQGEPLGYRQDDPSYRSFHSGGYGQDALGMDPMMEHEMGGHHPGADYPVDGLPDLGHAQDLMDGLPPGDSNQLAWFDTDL
Method: Competitive binding assays were performed (FIG. 3) wherein biotinylated β-catenin was immobilized on streptavidin plates and 50 nM E-Cadherin-FC fusion was added in the presence of varying amounts of the peptide inhibitors (SEQ ID NO: 42).

WNT pathway genes = experiment: Human WNT Signaling Pathway RT2 Profiler PCR Array in primary cells; format: cell-based; settings: 48 h, compared with ICG001
Method: On-target activity of each peptide was assessed by the transcriptional activity of WNT pathway genes using Qiagen's Human WNT Signaling Pathway RT^2 Profiler PCR Array). Primary cells were administered the therapeutic peptide corresponding to SEQ ID NO: 42 for 48 h. RNA was extracted from the harvested cells and profiled on the array using rtPCR. The array contains 84 genes related to Wnt-mediated signal transduction, including ligands, receptors, downstream signaling molecules, and regulators of the Wnt canonical pathway, two non-canonical pathways, planar cell polarity, and a calcium ion-dependent pathway, 38 of which were assessed here. Positive control of ICG001, a known Wnt inhibitor, was also run on the RNA array to be used as a comparison.

- Inhibition of the β-catenin and E-Cadherin interaction [1]: None of the doses tested inhibited
Structure (SMILES): CC[C@H](C)[C@H](NC(=O)[C@H](CC(C)C)NC(=O)[C@H](Cc1ccccc1)NC(=O)[C@H](Cc1c[nH]c2ccccc12)NC(=O)[C@@H](N)CCSC)C(=O)N[C@@H](CS)C(=O)N[C@@H](Cc1ccccc1)C(=O)N[C@@H](Cc1c[nH]c2ccccc12)C(=O)NCC(=O)O [SEQ ID NO: 42] (H-MWFLICFWG-OH)
- Inhibition of gene transcripts within the Wnt pathway (WNT pathway genes): outperformed the known positive control; also recorded: potent and specific Wnt inhibitor
